Key:
Type in all cases: functional
PC-3 = experiment: Cytotoxicity against human PC3 cells by MTT assay
HL-60 = experiment: Cytotoxicity against human HL60 cells by MTT assay
MDA-MB-231 = experiment: Cytotoxicity against human MDA-MB-231 cells by MTT assay
[1] = Cytotoxicity against human BRO cells by MTT assay
K562 = experiment: Cytotoxicity against human K562 cells by MTT assay
HT-29 = experiment: Cytotoxicity against human HT-29 cells by MTT assay
SK-OV-3 = experiment: Cytotoxicity against human SKOV3 cells by MTT assay

CC(=O)O[C@H]1C(=O)N(c2cc3c4ccccc4ccc3c3ccccc23)[C@@H]1c1ccccc1 (racemic)
INH (PC-3): 11.1 µM | INH (HL-60): 0.7 µM | INH (MDA-MB-231): 8.7 µM | INH [1]: 15.7 µM | INH (K562): 1.1 µM | INH (HT-29): 2 µM | INH (SK-OV-3): 8.9 µM

CC(=O)O[C@@H]1C(=O)N(c2cc3c4ccccc4ccc3c3ccccc23)[C@H]1c1ccccc1
INH (PC-3): 1.4 µM | INH (HL-60): 0.7 µM | INH (MDA-MB-231): 0.8 µM | INH [1]: 6.1 µM | INH (K562): 1.1 µM | INH (HT-29): 0.7 µM | INH (SK-OV-3): 6.8 µM

CC(=O)O[C@H]1C(=O)N(c2cc3c4ccccc4ccc3c3ccccc23)[C@@H]1c1ccccc1
INH (PC-3): 15.5 µM | INH (HL-60): 5.4 µM | INH (MDA-MB-231): 8.5 µM | INH [1]: 22 µM | INH (K562): 6 µM | INH (HT-29): 8.3 µM | INH (SK-OV-3): 6.1 µM

Source: ChEMBL document CHEMBL1154813, “Asymmetric synthesis of anticancer beta-lactams via Staudinger reaction: utilization of chiral ketene from carbohydrate” (2010)
